Results taken from patent publication US20240279562A1, “BIOACTIVE ADDITIVE FOR A FUEL, USES THEREOF, FUEL COMPOSITION, AND METHOD” (TUNAP GMBH & CO. KG, priority 2021, published 2024).

How the values were obtained:
Assay type in all cases: cell-based
[1] = test system: Hormoconis resinae ATCC 20495; experiment: Antimicrobial efficacy according to DIN EN 15457:2014-11, kerosene fungus; settings: FIG. 1; test solution 1% by weight additive vs 0.1% by weight MBO or MIT
Text: (§1) • “TUNAP new”: Test solution containing 1% by weight 2-(2-heptadec-8-enyl-2-imidazolin-1-yl)ethanol additive (example according to the disclosure). • “Standard diesel bug biocide with MBO”: test solution containing 0.1% by weight of the biocide MBO (3,3-methylenebis (5-methyloxazolidine)) (comparative sample). • “MIT”: test solution containing 0.1% by weight of the biocide MIT (2-methyl-2H-isothiazol-3-one), (comparative sample). • “Pure fuel”: fuel without the addition of an additive (comparative sample)
(§2) • Hormoconis resinae ATCC 20495 (“kerosene fungus”) • Yarrowia tropicalis ATCC 48138 (“yeast fungus”)
(§3) The antimicrobial efficacy of the samples against the tested microorganisms was determined according to DIN EN 15457:2014-11.

[2] = test system: Yarrowia tropicalis ATCC 48138; experiment: Antimicrobial efficacy according to DIN EN 15457:2014-11, yeast fungus; settings: FIG. 2; test solution 1% by weight additive vs 0.1% by weight MBO or MIT
Text: as §1, §2, §3

[3] = test system: Hormoconis resinae ATCC 20495; experiment: Antimicrobial activity according to ASTM E 1259-10, kerosene fungus; settings: FIG. 3, additive 1000 ppm, additive composition 2000 ppm or 5000 ppm; for killing of the tested kerosene fungus: MBO 1000 ppm
Text: • “TUNAP active ingredient”: test solution containing 1000 ppm 2-(2-heptadec-8-enyl-2-imidazolin-1-yl)ethanol additive (example according to the disclosure). • “TUNAP Protection System Diesel”: test solutions containing 2000 ppm or 5000 ppm of the additive composition “1903391” described below (corresponding to approx. 1000 ppm or 2500 ppm of the active ingredient 2-(2-heptadec-8-enyl-2-imidazolin-1-yl)ethanol) (examples according to the disclosure). • “Tunap 685 (Protezione Diesel) Biocide with MBO”: test solution containing 1000 ppm of the biocide MBO (3,3-methylenebis (5-methyloxazolidine), (comparative sample). • “BIT”: test solution containing 1000 ppm of the biocide BIT (benzisothiazolinone) (comparative sample). • “blank”: fuel without addition of an additive (comparative sample)
• at least 50% by weight 2-(2-heptadec-8-enyl-2-imidazolin-1-yl)ethanol • 10 to 20% by weight C10-C13 hydrocarbons • 5 to 10% by weight 2,6-di-tert-butyl-4-cresol • 5 to 10% by weight 2-ethylhexanol • 5 to 10% by weight 2-ethylhexyl nitrate • 5 to 10% by weight. of a mixture of bis(2-ethylhexyl)[(4-methyl-1H-1,2,3-benzotriazol-1-yl)methyl]amine, bis(2-ethylhexyl) [(4-methyl-2H-1,2,3-benzotriazol-2-yl)methyl]amine, bis(2-ethylhexyl) [(5-methyl-1H-1,2,3-benzotriazol-1-yl)methyl]amine, bis(2-ethylhexyl) [(5-methyl-2H-1,2,3-benzotriazol-2-yl)methyl]amine, bis(2-ethylhexyl) [(6-methyl-1H-1,2,3-benzotriazol-1-yl)methyl]amine
• Hormoconis resinae ATCC 20495 (“kerosene fungus”) • Pseudomonas aeruginosa DSM 15980 (“bacterium”) • Yarrowia tropicalis ATCC 48138 (“yeast”)
(§4) The antimicrobial activity of the samples against the tested microorganisms was determined according to ASTM E 1259-10.

[4] = test system: Yarrowia tropicalis ATCC 48138; experiment: Antimicrobial activity according to ASTM E 1259-10, yeast; settings: FIG. 5; additive 1000 ppm, additive composition 2000 ppm or 5000 ppm, BIT 1000 ppm
Text: (§5) • “TUNAP active ingredient”: test solution containing 1000 ppm 2-(2-heptadec-8-enyl-2-imidazolin-1-yl)ethanol additive (example according to the disclosure). • “TUNAP Protection System Diesel”: test solutions containing 2000 ppm or 5000 ppm of the additive composition “1903391” described below (corresponding to approx. 1000 ppm or 2500 ppm of the active ingredient 2-(2-heptadec-8-enyl-2-imidazolin-1-yl)ethanol) (examples according to the disclosure). • “Tunap 685 (Protezione Diesel) Biocide with MBO”: test solution containing 1000 ppm of the biocide MBO (3,3-methylenebis (5-methyloxazolidine), (comparative sample). • “BIT”: test solution containing 1000 ppm of the biocide BIT (benzisothiazolinone) (comparative sample). • “blank”: fuel without addition of an additive (comparative sample) […]
as §4

[5] = test system: Pseudomonas aeruginosa DSM 15980; experiment: Antimicrobial activity according to ASTM E 1259-10, bacterium; settings: FIG. 4; additive composition 2000 ppm or 5000 ppm, MBO 1000 ppm
Text: as §5, §4

With `CCCCCCCCC=CCCCCCCCC1=NCCN1CCO` [additive according to the disclosure, 2-(2-heptadec-8-enyl-2-imidazolin-1-yl)ethanol] the “efficacy against the tested kerosene fungus compared with MBO and MIT” value [1] was “significantly improved efficacy against the tested kerosene fungus than the conventional and also toxic biocides MBO and MIT”, the “efficacy against the tested yeast fungus compared with MBO and MIT” value [2] was “at least a similar efficacy against the tested yeast fungus as the conventional but toxic biocides MBO and MIT” and the “efficacy against the tested kerosene fungus compared with BIT” value ([3]; BIT 1000 ppm) was “significantly improved efficacy against the tested kerosene fungus than the conventional biocide BIT”. For the same molecule, the “killing of the tested kerosene fungus” value [3] was “almost complete killing” and the “efficacy against the tested yeast compared with BIT” value [4] was “significantly improved efficacy against the tested yeast than the conventional biocide BIT”.

In the case of `CC1CN(CN2COC(C)C2)CO1` (stereo not shown) [MBO, 3,3-methylenebis (5-methyloxazolidine), reference compound], the “killing of the tested kerosene fungus” value [3] is reported as “almost complete killing” and the “killing of the tested bacterium” value [5] is reported as “almost complete killing”.
